# From patent US20010004643A1, “Pharmaceutical composition with sotalol combination and their use in treatment of cardiac ailments” (priority 1999, published 2001)
# Marks after values point to notes of the source that are not given here.
# How the values were obtained:
# [1] = tested on: beta adrenergic blockade, isolated right auricle preparation of rabbit; test: Beta blocking potency (pA2 against isoprenaline) in isolated rabbit right auricle; details: isoprenaline chronotropic response, Schild's plot
# Method: Estimation of the beta blockade of various ratios of d- and l- isomers of sotalol was carried out in the isolated right auricle preparation of rabbit. The spontaneously beating right atrium was dissected and mounted in a 20 ml tissue bath. The resting tension on the atria was set at 1 g. The contractions were recorded using a force displacement transducer. The spontaneous contractions of the right atria were recorded isometrically and the heart rate was obtained as a derived parameter using a ratemeter that gave the output in beats per minute. Six different ratios of d and l isomers were investigated (1:1, 2:1, 3:1, 4:1, 5:1 and 1:0). Dose-response-curves (DRC) for isoprenaline in the isolated atria, using the chronotropic response were determined by cumulative addition of isoprenaline. The pA2 values of each of the ratios were estimated using the classical Schild's plot (Schild, 1957) and the values are shown in Table 1.
# [2] = tested on: ouabain induced arrhythmia (VT, VF, mortality); test: Ouabain induced arrhythmia model in guinea pig; type: in vivo; details: for % INCIDENCE OF MORTALITY: mortality at 60 min; for deaths due to conduction block (60 min), actual incidence (value in parenthesis) / deaths due to tachyarrhythmia (60 min), actual incidence (value in parenthesis): number of animals; for actual incidence of VF (value in parenthesis) / actual incidence of VT (value in parenthesis) / actual incidence of mortality (value in parenthesis): number of animals of the group; for % INCIDENCE OF VF / % INCIDENCE OF VT: ouabain 240 μg/kg in three doses, observed one hour; for DEATHS DUE TO CONDUCTION BLOCK (60 MIN) Percentage / DEATHS DUE TO TACHYARRHYTHMIA (60 MIN) Percentage: percentage deaths out of total mortality; for actual incidence of mortality (value in parenthesis): 60 min
# Source text: Method: Guinea pigs (Dunken Hartley) of either sex weighing between 400 and 500 g were used for the study. The animals were anesthetized with urethane (1.25 g/kg. i.p.). The left common carotid artery and left jugular vein were cannulated for arterial blood pressure monitoring and intravenous access respectively. Lead II electrocardiogram, arterial blood pressure, mean arterial blood pressure (MABP), heart rate were monitored throughout the experiment.
# After initial surgical preparations and allowing 30 minutes for the animal to stabilise the first dose of ouabain (90 μg/kg) was administered over a period of one minute. After the interval of thirty minutes, second dose of ouabain (60 μg/kg) was administered over a period of one minute. One minute after this dose, 0.5 ml saline (in control experiments) was administered over a period of one minute. After an interval of 10 minutes a third dose of ouabain (90 μg/kg) was administered over a period of one minute. […] The test compounds were administered to animals in test group in place of saline to evaluate their antiarrhythmic potential. From the ECG recordings, the incidence of VT, VF and mortality were recorded. The doses of ratios of sotalol isomers studied were 0.1, 0.5 and 2.5 mg/kg.
# Interpretation of ECG recordings: Minor disturbance in rhythm was not considered while evaluating ventricular tachyarrhythmias. A run of more than 3 ventricular ectopic beats having wide QRS complexes associated with partial haemodynamic collapse was considered as Ventricular Tachycardia (VT). Total morphological irregularity of repetitive complexes for at least six cycles associated with complete haemodynamic collapse was considered as Ventricular Fibrillation (VF). Successful arrhythmia protection was defined as no occurrence of VT and VF from the injection of saline/test drug till the end of the experiment.
# Statistics: Chi square test with continuity correction at 95% confidence limit was applied to find out the statistical significance between control and test groups for incidence of VT, VF and mortality. Whenever, any of the value in a cell was less than 5, Fischer's exact probability test was used.
# Results: Different ratios of sotalol in the dose range from 0.02 mg/kg to 12.5 mg/kg were studied in individual groups of animals. In all 18 groups were studied and at least 6 animals were used in each group. In control animals ouabain 240 μg/kg in three divided doses induced reproducible ventricular tachyarrhythmias in guinea pigs. It was observed that ventricular arrhythmias appeared after the administration of the third dose. Guinea pigs which responded early i.e. before or within 1 min. of administration of the second dose, were considered early responders and were not included in the study. […] In the study, control experiments were carried out randomly interspersed in test groups. Among the 42 control animals the incidence of VT was 81%, incidence of VF was 71.4% and the incidence of mortality at 60 minutes was 61.9%.
smiles,measurement,setting,value
"CC(C)NCC(O)c1ccc(NS(C)(=O)=O)cc1 (centres unmarked) [5:1, N-[4-[1-hydroxy-2-[(1-methylethyl)amino]ethyl]phenyl] methane sulfonamide]",pA2 Mean,[1],5.85
"CC(C)NCC(O)c1ccc(NS(C)(=O)=O)cc1 (racemic) [dl-SOTALOL, N-[4-[1-hydroxy-2-[(1-methylethyl)amino]ethyl]phenyl] methane sulfonamide]",pA2 Mean,[1],6.48
same,% INCIDENCE OF MORTALITY,[2]; 0.02 mg/kg,16.6%
same,"deaths due to conduction block (60 min), actual incidence (value in parenthesis)",[2]; 0.02 mg/kg,(0)
same,"deaths due to tachyarrhythmia (60 min), actual incidence (value in parenthesis)",[2]; 0.02 mg/kg,(1)
same,actual incidence of VF (value in parenthesis),[2]; 0.02 mg/kg,(5)
same,actual incidence of VT (value in parenthesis),[2]; 0.02 mg/kg,(5)
same,% INCIDENCE OF VF,[2]; 0.02 mg/kg,83.3%
same,% INCIDENCE OF VT,[2]; 0.02 mg/kg,83.3%
same,DEATHS DUE TO CONDUCTION BLOCK (60 MIN) Percentage,[2]; 0.02 mg/kg,00.0%
same,DEATHS DUE TO TACHYARRHYTHMIA (60 MIN) Percentage,[2]; 0.02 mg/kg,100.0%
same,actual incidence of mortality (value in parenthesis),[2]; 0.1 mg/kg,(2)
same,% INCIDENCE OF MORTALITY,[2]; 0.1 mg/kg,33.3%
same,"deaths due to conduction block (60 min), actual incidence (value in parenthesis)",[2]; 0.1 mg/kg,(1)
same,"deaths due to tachyarrhythmia (60 min), actual incidence (value in parenthesis)",[2]; 0.1 mg/kg,(1)
same,actual incidence of VF (value in parenthesis),[2]; 0.1 mg/kg,(2)
same,actual incidence of VT (value in parenthesis),[2]; 0.1 mg/kg,(2)*
same,% INCIDENCE OF VF,[2]; 0.1 mg/kg,33.3%
same,% INCIDENCE OF VT,[2]; 0.1 mg/kg,33.3%
same,DEATHS DUE TO CONDUCTION BLOCK (60 MIN) Percentage,[2]; 0.1 mg/kg,50.0%
same,DEATHS DUE TO TACHYARRHYTHMIA (60 MIN) Percentage,[2]; 0.1 mg/kg,50.0%
same,actual incidence of mortality (value in parenthesis),[2]; 0.5 mg/kg,(3)
same,% INCIDENCE OF MORTALITY,[2]; 0.5 mg/kg,50.0%
same,"deaths due to conduction block (60 min), actual incidence (value in parenthesis)",[2]; 0.5 mg/kg,(3)
same,"deaths due to tachyarrhythmia (60 min), actual incidence (value in parenthesis)",[2]; 0.5 mg/kg,(0)
same,actual incidence of VF (value in parenthesis),[2]; 0.5 mg/kg,(2)
same,actual incidence of VT (value in parenthesis),[2]; 0.5 mg/kg,(2)*
same,% INCIDENCE OF VF,[2]; 0.5 mg/kg,33.3%
same,% INCIDENCE OF VT,[2]; 0.5 mg/kg,33.3%
same,DEATHS DUE TO CONDUCTION BLOCK (60 MIN) Percentage,[2]; 0.5 mg/kg,100.0%
same,DEATHS DUE TO TACHYARRHYTHMIA (60 MIN) Percentage,[2]; 0.5 mg/kg,00.0%
same,protection against mortality,[2]; 2.5 mg/kg,no protection
same,protection from deaths due to tachyarrhythmias,[2]; 2.5 mg/kg,completely protected
same,actual incidence of mortality (value in parenthesis),[2]; 2.5 mg/kg,(6)
same,% INCIDENCE OF MORTALITY,[2]; 2.5 mg/kg,60.0%
same,% INCIDENCE OF MORTALITY,"[2]; 2.5 mg/kg, listed as d:l sotalol (ratio 1:1)",60%
same,"deaths due to conduction block (60 min), actual incidence (value in parenthesis)",[2]; 2.5 mg/kg,(6)
same,"deaths due to tachyarrhythmia (60 min), actual incidence (value in parenthesis)",[2]; 2.5 mg/kg,(0)*
same,actual incidence of VF (value in parenthesis),[2]; 2.5 mg/kg,(0)*
same,actual incidence of VT (value in parenthesis),[2]; 2.5 mg/kg,(0)*
same,% INCIDENCE OF VF,[2]; 2.5 mg/kg,00.0%
same,% INCIDENCE OF VT,[2]; 2.5 mg/kg,00.0%
same,DEATHS DUE TO CONDUCTION BLOCK (60 MIN) Percentage,[2]; 2.5 mg/kg,100.0%
same,DEATHS DUE TO TACHYARRHYTHMIA (60 MIN) Percentage,[2]; 2.5 mg/kg,00.0%
same,protection against ouabain induced VT,"[2]; 0.1, 0.5 and 2.5 mg/kg dose",able to protect
same,protection against VF,[2]; 0.1 and 0.5 mg/kg doses,some protection
same,cause of deaths,[2]; as the dose was increased,entirely due to conduction abnormalities
same,dose at which complete protection against VT was observed,"[2]; guinea pig, in vivo",2.5 mg/kg
same,dose that completely protected against VF,"[2]; guinea pig, in vivo",2.5 mg/kg
same,minimum protective dose against ouabain induced VT,"[2]; guinea pig, in vivo",0.1 mg/kg
same,cause of deaths,[2]; lower doses,due to tachyarrhythmias
same,protection against mortality,[2]; lower doses,reduced mortality
same,deaths due to conduction block increased,[2]; no dose stated,increased
